One data set concerns the target T1, human RXFP1 (Homo sapiens, UniProt Q9HBX9).
T1 construct: expressed in transfected cells
T1 sequence (Q9HBX9 1-757): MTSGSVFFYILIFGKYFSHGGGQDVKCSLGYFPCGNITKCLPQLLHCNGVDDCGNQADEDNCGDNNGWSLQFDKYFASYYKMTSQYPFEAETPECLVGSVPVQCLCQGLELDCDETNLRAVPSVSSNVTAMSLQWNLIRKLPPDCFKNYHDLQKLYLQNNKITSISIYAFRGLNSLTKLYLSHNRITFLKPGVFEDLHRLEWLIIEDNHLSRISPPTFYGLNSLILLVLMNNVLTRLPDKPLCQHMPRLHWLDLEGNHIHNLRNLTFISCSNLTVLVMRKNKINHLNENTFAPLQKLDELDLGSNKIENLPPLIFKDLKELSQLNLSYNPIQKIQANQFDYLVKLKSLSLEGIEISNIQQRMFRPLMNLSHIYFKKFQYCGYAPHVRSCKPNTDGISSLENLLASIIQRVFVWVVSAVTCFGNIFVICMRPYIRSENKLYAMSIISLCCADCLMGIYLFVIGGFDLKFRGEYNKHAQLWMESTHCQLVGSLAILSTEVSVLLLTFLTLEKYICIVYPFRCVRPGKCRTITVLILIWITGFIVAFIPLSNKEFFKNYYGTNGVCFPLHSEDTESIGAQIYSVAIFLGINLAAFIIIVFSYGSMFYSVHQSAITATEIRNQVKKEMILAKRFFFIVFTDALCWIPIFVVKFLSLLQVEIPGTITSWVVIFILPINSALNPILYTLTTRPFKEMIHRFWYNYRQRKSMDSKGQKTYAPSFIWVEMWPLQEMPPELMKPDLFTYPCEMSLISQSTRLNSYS
In words: RXFP1 cAMP assay (hRXFP1 HEK293 cAMP assay, HTRF). In kind it is cell-based. The conditions noted are these: HEK293 cells stably expressing human RXFP1, 30 min at room temperature, read-out: cAMP hRXFP1 HEK293 Assay EC50. Summed up:
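In a stable human RXFP1 HEK293 line, compounds acted for 30 min at RT in buffer with 0.5 mM IBMX. HTRF then quantified cellular cAMP.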
On to `COc1ccc(C2=NOC3CC(C(O)C(F)(F)F)CC23)cc1C(=O)N[C@H]1[C@@H](C(=O)Nc2ccc(F)c(C(F)(F)F)c2)[C@H]2CC[C@@H]1/C2=C\C1CC1` (stereo partly shown) [compound 848], for which the EC50 was found to be 2.5 nM.

`COc1cc(F)c(F)cc1C(=O)N[C@@H]1C2CCC(/C2=C/C(=O)OCc2ccccc2)[C@@H]1C(=O)Nc1ccc(F)c(C(F)(F)F)c1` (stereo partly shown) [compound 9]: the EC50 is 310 nM.

Take `O=C(N[C@H]1[C@@H](C(=O)Nc2ccc(F)c(C(F)(F)F)c2)[C@H]2CC[C@@H]1/C2=C\C1CC1)c1cc(C2=NOC3CC(CO)CC23)ccc1OCC(F)F` (stereo partly shown) [compound 783]: the EC50 turned out to be 3.4 nM.

For `COc1ccc(C2=NO[C@H]3COC[C@@H]23)cc1C(=O)N[C@H]1[C@@H](C(=O)Nc2ccc(F)c(C(F)(F)F)c2)[C@H]2CC[C@@H]1/C2=C\CCC(F)(F)F` [compound 830], the EC50 is 3.4 nM.

In the case of `COc1c(F)cc(C2=NOC3CC(CO)CC23)cc1C(=O)N[C@H]1[C@@H](C(=O)N[C@H](C)C2(C)CC2)[C@H]2CC[C@@H]1/C2=C\CC(O)C(F)(F)F` (stereo partly shown) [compound 832], the EC50 stood at 3.6 nM.

For the compound `COc1ccc(C2=NOC3COCC23)cc1C(=O)N[C@H]1[C@@H](C(=O)N[C@@H]2CCc3ccccc32)[C@H]2CC[C@@H]1/C2=C\C1CC1` (stereo partly shown) [compound 577], the EC50 came out at 70.7 nM.

As for `COc1ccc(C2=NOC3(CCNC3)C2)cc1C(=O)N[C@H]1[C@@H](C(=O)Nc2ccc(F)c(C(F)(F)F)c2)[C@H]2CC[C@@H]1/C2=C\C1CC1` (stereo partly shown) [compound 593], the EC50 was found to be 89.8 nM.

Consider `COc1c(F)cc(C2=NOC3CC(O)CC23)cc1C(=O)N[C@H]1[C@@H](C(=O)Nc2ccc(F)c(C(F)(F)F)c2)[C@H]2CC[C@@H]1/C2=C\C1CCCC1` (stereo partly shown) [compound 868], for which the EC50 is 3.8 nM.

On to `COc1ccc(C2=NOC3CC(CO)CC23)cc1C(=O)N[C@@H]1C2CCC(/C2=C/C2CC2)[C@@H]1C(=O)Nc1ccc(F)c(C(F)(F)F)c1` (single isomer, unassigned) [compound 431], for which the EC50 is 250 nM.

Test system in the next data set: not given
Test: not given
Conditions: intravenous (IV) formulation; cited from earlier work.
For Serelaxin, the first-phase pharmacokinetic half-life is 5.4 min.

Source of the values: patent US20250221966A1, “RXFP1 AGONISTS” (BRISTOL-MYERS SQUIBB COMPANY, priority 2021, published 2025).
